This assay deals with T1, MAT2A homodimer (Homo sapiens, UniProt P31153).
T1 construct: inferred from Ni sepharose purification and imidazole elution; made in house; host or cells: Sf9 insect cells, recombinant baculovirus (Bac to Bac, pFASTBAC1 vector)
Nature of the assay: Biochemical assay: inhibition of recombinant MAT2A homodimer (phosphate release, PiColorLock Gold). Particulars: MAT2A IC50 score; read-out: Enzyme Inhibition. Here is the method: Mat2A protein was expressed by recombinant baculovirus in SF9 infected cells using the Bac to Bac system cloned into the pFASTBAC1 vector (Invitrogen, Carlsbad, Calif.). Recombinant MAT2A was isolated from the cell lysate of 150 g of infected cells using HP Ni sepharose column chromatography. Recombinant MAT2A homodimer was eluted with 250 and 500 mM imidazole, and fractions containing MAT2A were identified by sodium dodecyl sulfate polyacrylamide gel electrophoresis and pooled.
For determination of the inhibitory potency of compounds against the MAT2A homodimer, protein was diluted to 4 μg/mL in assay buffer (50 mM Tris, pH 8.0, 50 mM KCl, 15 mM MgCl2, 0.3 mM EDTA, 0.005% [w/v] bovine serum albumin [BSA]). Test compound was prepared in 100% dimethyl sulfoxide (DMSO) at 50× the desired final concentration. A 1 μL volume of compound dilution was added to 40 μL of enzyme dilution and the mixture was allowed to equilibrate for 60 minutes at 25° C. The enzymatic assay was initiated by the addition of 10 μL of substrate mix (500 μM ATP, pH 7.0, 40 μM L-methionine in 1× assay buffer), and the mixture was incubated for a further 60 minutes at 25° C. The reaction was halted and the liberated phosphate released by the enzyme in stoichiometric amounts by the production of S-adenosyl methionine (SAM) was measured using the PiColorLock Gold kit (Innova Biosciences, UK). Absolute product amounts were determined by comparison to a standard curve of potassium phosphate buffer, pH 8.0.

These results are taken from patent publication US20220251081A1, “HETEROBICYCLIC INHIBITORS OF MAT2A AND METHODS OF USE FOR TREATING CANCER” (priority 2019, published 2022).

T1 sequence (P31153 whole entry): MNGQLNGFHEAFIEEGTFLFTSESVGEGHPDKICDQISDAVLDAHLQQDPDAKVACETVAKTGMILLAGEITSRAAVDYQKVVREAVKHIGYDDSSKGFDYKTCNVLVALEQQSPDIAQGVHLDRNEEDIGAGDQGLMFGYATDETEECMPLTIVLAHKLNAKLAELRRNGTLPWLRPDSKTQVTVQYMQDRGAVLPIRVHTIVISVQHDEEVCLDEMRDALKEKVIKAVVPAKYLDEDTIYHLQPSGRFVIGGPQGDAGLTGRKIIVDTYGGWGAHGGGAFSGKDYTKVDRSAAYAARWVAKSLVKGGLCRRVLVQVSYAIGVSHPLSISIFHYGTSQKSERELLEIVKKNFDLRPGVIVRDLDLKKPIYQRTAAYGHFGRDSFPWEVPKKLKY

Regarding `COc1ccc(-n2c(=O)c(-c3ccc(S(C)(=O)=O)cc3)cc3cnc(NCC(F)(F)F)nc32)cc1` [Example 179], the IC50 lay in the range of 0.1 to 1 µM.

For the compound `Cn1cc2cc(-c3nc4ccc(OCC(F)(F)F)nc4n(-c4ccc(N)nc4)c3=O)ccc2n1` [Example 350, 4-(6-aminopyridin-3-yl)-2-(2-methyl-2H-indazol-5-yl)-6-(2,2,2-trifluoroethoxy)pyrido[2,3-b]pyrazin-3(4H)-one], the IC50 lay within 0.1 to 1 µM. To `CCNc1ccc2cc(-c3ccc4nn(C)cc4c3)c(=O)n(-c3ccc(N)nc3)c2n1` [Example 312] belongs less than 0.1 µM; to `COc1ccc(-c2cc3cnc(NCC(F)(F)F)nc3n(-c3ccc(Cl)cc3)c2=O)cc1` [Example 126], less than 0.1 µM. As for `COc1ccc(-n2c(=O)c(-c3ccncc3)cc3cnc(NCC(F)(F)F)nc32)cc1` [Example 181], the IC50 lay within 0.1 to 1 µM.

Take `COc1ccc(-c2cc3cnc(S(C)(=O)=O)nc3n(-c3ccc(O)cc3)c2=O)cc1` [Example 105]: the IC50 was 1 to 10 µM. The same measure for `[2H]C([2H])([2H])Oc1ccc(-c2cc3ccc(NCC(F)(F)F)nc3n(-c3ccc(OC([2H])([2H])[2H])cc3)c2=O)cc1` [Example 306]: less than 0.1 µM; for `CCOc1ccc2cc(-c3ccc(OC)cc3)c(=O)n(-c3ccc(Cl)cc3)c2n1` [Example 154]: less than 0.1 µM; for `COc1ccc(-n2c(=O)c(-c3ccc(OC)cn3)cc3cnc(NCC(F)(F)F)nc32)cc1` [Example 175]: 0.1 to 1 µM. The same measure for `CCNc1ccc2nc(-c3ccc4nn(C)cc4c3)c(=O)n(-c3ccc(C4CC4)nc3)c2n1` [Example 336]: less than 0.1 µM; for `CCOc1ccc2cc(-c3ccc(OC)cc3)c(=O)n(-c3ccc(C(F)(F)F)cc3)c2n1` [Example 141]: less than 0.1 µM; for `COc1ccc(-c2cc3cnc(SC)nc3n(-c3ccc(OC)cc3)c2=O)cc1` [Example 113]: 0.1 to 1 µM. To `CCOc1ccc2cc(-c3ccc(OC)cc3)c(=O)n(-c3cnc(NC)nc3)c2n1` [Example 143] belongs less than 0.1 µM; to `COc1ccc(-c2cc3cnc(NCC(F)(F)F)nc3n(-c3ccc(C(F)(F)F)cc3)c2=O)cc1` [Example 112], less than 0.1 µM. As to `COc1ccc(-c2cc3cnc(NCC(F)(F)F)nc3n(-c3ccc(OC(F)(F)F)cc3)c2=O)cc1` [Example 109], the IC50 was 0.1 to 1 µM.

As for `COc1ccc(-n2c(=O)c(-c3ccc4nncn4c3)cc3cnc(NCC(F)(F)F)nc32)cc1` [Example 182], the IC50 lay within 1 to 10 µM. Take `CCOc1ccc2cc(-c3ccc4nn(C)cc4c3)c(=O)n(-c3ccc(C)nc3)c2n1` [Example 137]: the IC50 was less than 0.1 µM. The same measure for `COc1ccc(-n2c(=O)c(-c3ccc4ncccc4c3)cc3cnc(SC)nc32)cc1` [Example 114]: 0.1 to 1 µM; for `CCNc1ccc2nc(-c3ccc4nn(C)cc4c3)c(=O)n(-c3ccc(C)nc3)c2n1` [Example 337]: less than 0.1 µM; for `CCOc1ccc2cc(-c3ccc(OC)cc3)c(=O)n(-c3ccc(C)nc3)c2n1` [Example 136, 7-ethoxy-3-(4-methoxyphenyl)-1-(6-methylpyridin-3-yl)-1,8-naphthyridin-2(1H)-one]: less than 0.1 µM. In the case of `COc1ccc(-c2cc3cnc(NCC(F)(F)F)nc3n(-c3ccncc3)c2=O)cc1` [Example 107], the IC50 lay in the range of 0.1 to 1 µM. As to `COc1ccc(-c2cc3ccc(NCC(F)(F)F)nc3n(-c3ccc(C4CC4)nc3)c2=O)cc1` [Example 134], the IC50 was less than 0.1 µM.

Regarding `COc1ccc(-c2cc3cnc(NCC(F)(F)F)nc3n(-c3ccc(C#N)cc3)c2=O)cc1` [Example 117], the IC50 was in the range of 0.1 to 1 µM.

Turning to `Cn1cc(-c2cc3cnc(NCC(F)(F)F)nc3n(-c3ccc(C4CC4)cc3)c2=O)ccc1=O` [Example 193], the IC50 is less than 0.1 µM. The same measure for `COc1ccc(-c2cc3cnc(NCC4CC4)nc3n(-c3ccccc3)c2=O)cc1` [Example 102]: 0.1 to 1 µM; for `COc1ccc(-c2cc3ccc(NCC(F)(F)F)nc3n(-c3ccc(Cl)cc3)c2=O)cc1` [Example 133]: less than 0.1 µM.

With `COc1ccc(-c2cc3cnc(NCC(F)(F)F)nc3n(-c3ccc4sccc4c3)c2=O)cc1` [Example 125, 8-(benzo[b]thiophen-5-yl)-6-(4-methoxyphenyl)-2-(2,2,2-trifluoroethylamino)pyrido[2,3-d]pyrimidin-7(8H)-one], the IC50 is less than 0.1 µM. To `CCOc1ccc2cc(-c3ccc(OCCN(C)C)cc3)c(=O)n(-c3ccc(OC(F)F)cc3)c2n1` [Example 206] belongs less than 0.1 µM. To `COc1ccc(-n2c(=O)c(-c3ccc(OC)c(C)c3)cc3cnc(NCC(F)(F)F)nc32)cc1` [Example 178] belongs 0.1 to 1 µM; to `COc1ccc(-n2c(=O)c(-c3ccc4nn(CCO)cc4c3)cc3ccc(OCC(F)(F)F)nc32)cc1` [Example 323], less than 0.1 µM. The same measure for `O=c1c(-c2ccc3nccn3c2)cc2cnc(NCC(F)(F)F)nc2n1-c1ccc(C2CC2)cc1` [Example 192]: less than 0.1 µM. Regarding `CCOc1ccc2cc(-c3ccc(OC)cc3)c(=O)n(-c3ccc(OC(F)(F)F)nc3)c2n1` [Example 156], the IC50 fell in the range of 0.1 to 1 µM. The same measure for `CN(C)c1ccc(-n2c(=O)c(-c3ccc4nn(C)cc4c3)cc3ccc(OCC(F)(F)F)nc32)cn1` [Example 315]: less than 0.1 µM.

Take `COc1ccc(-c2cc3cnc(NCC(F)(F)F)nc3n(-c3ccccc3)c2=O)cc1` [Example 103]: the IC50 was 0.1 to 1 µM.

For `Cn1cc(-c2cc3cnc(NCC(F)(F)F)nc3n(-c3ccc(-c4cc[nH]n4)cc3)c2=O)ccc1=O` [Example 234, 8-(4-(1H-pyrazol-5-yl)phenyl)-6-(1-methyl-6-oxo-1,6-dihydropyridin-3-yl)-2-(2,2,2-trifluoroethylamino)pyrido[2,3-d]pyrimidin-7(8H)-one], the IC50 was less than 0.1 µM. The same measure for `CNC(=O)c1ccc(-c2cc3cnc(NCC(F)(F)F)nc3n(-c3ccc(OC)cc3)c2=O)cc1` [Example 170, 4-(8-(4-methoxyphenyl)-7-oxo-2-(2,2,2-trifluoroethylamino)-7,8-dihydropyrido[2,3-d]pyrimidin-6-yl)-N-methylbenzamide]: 0.1 to 1 µM. The same measure for `COc1ccc(-n2c(=O)c(-c3ccc(OC)c(F)c3)cc3cnc(NCC(F)(F)F)nc32)cc1` [Example 184]: 0.1 to 1 µM. In the case of `COc1ccc(-c2cc3cnc(NCC(F)(F)F)nc3n(-c3ccc4[nH]ccc4c3)c2=O)cc1` [Example 128], the IC50 fell in the range of 0.1 to 1 µM.

Regarding `[2H]C([2H])([2H])Nc1ccc(-n2c(=O)c(-c3ccc4nn(C)cc4c3)cc3ccc(OCC)nc32)cn1` [Example 146], the IC50 is less than 0.1 µM. The same measure for `COc1ccc(-c2cc3cnc(SC)nc3n(-c3ccc(OC(F)(F)F)cc3)c2=O)cc1` [Example 108]: 1 to 10 µM; for `COc1ccc(-c2cc3cnc(S(C)(=O)=O)nc3n(-c3ccccc3)c2=O)cc1` [Example 104]: 1 to 10 µM; for `Cn1cc2cc(-c3nc4ccc(OCC(F)(F)F)nc4n(-c4ccc(Cl)cc4)c3=O)ccc2n1` [Example 339]: less than 0.1 µM.

Regarding `CN(C)c1ccc(-n2c(=O)c(-c3ccc4nn(C)cc4c3)nc3ccc(OCC(F)(F)F)nc32)cn1` [Example 349, 4-(6-(dimethylamino)pyridin-3-yl)-2-(2-methyl-2H-indazol-5-yl)-6-(2,2,2-trifluoroethoxy)pyrido[2,3-b]pyrazin-3(4H)-one], the IC50 was less than 0.1 µM. To `CCOc1ccc2cc(-c3ccc(OC(F)F)cc3)c(=O)n(-c3ccc(OC(F)F)cc3)c2n1` [Example 198] belongs less than 0.1 µM; to `COc1ccc(-c2cc3ccc(NCC(F)(F)F)nc3n(-c3ccc(C4CC4)cc3)c2=O)cc1` [Example 132], less than 0.1 µM.

Take `COc1ccc(-c2cc3cnc(SC)nc3n(-c3ccc(C(F)(F)F)cc3)c2=O)cc1` [Example 111]: the IC50 was in the range of 1 to 10 µM. To `COc1ccc(-n2c(=O)c(-c3ccc4c(c3)OC(C)(C)O4)cc3cnc(NCC(F)(F)F)nc32)cc1` [Example 191] belongs 0.1 to 1 µM; to `COc1ccc(-n2c(=O)c(-c3ccc4c(c3)C(C)(C)CO4)cc3cnc(NCC(F)(F)F)nc32)cc1` [Example 190], less than 0.1 µM; to `CCOc1ccc2cc(-c3ccc4nn(CC(C)(C)C)cc4c3)c(=O)n(-c3ccc(Cl)cc3)c2n1` [Example 211], less than 0.1 µM. To `CCOc1ccc2cc(-c3ccc4nn(CC(C)(C)O)cc4c3)c(=O)n(-c3ccc(OC(F)(F)F)nc3)c2n1` [Example 212] belongs less than 0.1 µM; to `Cn1cc2cc(-c3cc4ccc(NCC(F)(F)F)nc4n(-c4ccc(C5CC5)nc4)c3=O)ccc2n1` [Example 311], less than 0.1 µM; to `COc1ccc(-c2cc3cnc(SC)nc3n(-c3ccc(Cl)cc3)c2=O)cc1` [Example 110], 0.1 to 1 µM.
